Test results reported in publication PMC3771683 (Analytical chemistry, 2013).

Tests used:
Tp53rk = molecular target: T1, Tp53rk (Homo sapiens, UniProt Q96S44); experiment: AAP protein-level capture with TMT, staurosporine competition in HeLa lysate; assay type: binding
T1 sequence (Q96S44 1-253): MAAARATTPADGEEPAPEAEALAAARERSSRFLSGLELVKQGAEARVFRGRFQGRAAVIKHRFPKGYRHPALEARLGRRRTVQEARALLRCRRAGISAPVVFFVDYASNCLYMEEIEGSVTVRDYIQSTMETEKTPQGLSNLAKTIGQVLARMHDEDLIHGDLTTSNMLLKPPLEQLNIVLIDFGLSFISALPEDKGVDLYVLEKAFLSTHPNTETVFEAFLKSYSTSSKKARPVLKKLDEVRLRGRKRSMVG

[1] = test system: Mapk, Akt, and Rps6ka1 kinases; assay type: cell-based; details: MCF 10A cells treated with EGF or lapatinib vs DMSO; Western blotting and KAYAK

Compound | IC50 (Tp53rk) [µM] | activation of Mapk, Akt, and Rps6ka1 kinases [1]
CN[C@@H]1C[C@H]2O[C@@](C)([C@@H]1OC)n1c3ccccc3c3c4c(c5c6ccccc6n2c5c31)C(=O)NC4 [staurosporine] | 73 | –
CS(=O)(=O)CCNCc1ccc(-c2ccc3ncnc(Nc4ccc(OCc5cccc(F)c5)c(Cl)c4)c3c2)o1 [lapatinib] | – | inhibition when lapatinib was present
EGF: stimulates EGFR and numerous downstream kinases | – | substantial activation
